Measured values from article PMC7967551 (2021).

Columns and labels:
[1] = test system: Tel23 (DNA, G4) TAGGGTTAGGGTTAGGGTTAGGG; test: absorbance titration; settings: K+ (KCl 0.1 M stated for G4 melting), Li+; LiCac 2.5 mM, pH 7.0; no signal change; highest concentration not stated
[2] = test system: Tel23 (DNA, G4) TAGGGTTAGGGTTAGGGTTAGGG; test: UV melting at 295 nm; settings: K+ 100 mM (KCl), Li+, LiCac 2.5 mM, pH 7.0, 5.51 µM G4, no stabilizing effect

binding [1] | binding ([2]; 5.47 µM compound) | binding ([2]; 6.01 µM compound) | Compound
no | no | – | c1cc[n+]2c(c1)-c1cccc[n+]1CC2
no | – | no | C[n+]1ccc(-c2cc[n+](C)cc2)cc1
